Measured values taken from patent publication US20250057845A1, “COMBINATION OF A TASK1/3 CHANNEL BLOCKER WITH A P2X3 RECEPTOR ANTAGONIST FOR THE TREATMENT OF SLEEP APNEA” (BAYER AKTIENGESELLSCHAFT, priority 2020, published 2025).

Legend:
[1] = system: upper airway collapsibility in anaesthetized, spontaneously breathing pigs; assay: pig model of obstructive sleep apnea (OSA): upper airway collapsibility under negative pressure; assay type: in vivo, German Landrace pigs
From the text: The therapeutic potential of the combination of a TASK1/3 channel blocker with a P2X3 receptor antagonist according to the present invention in sleep apnea can be assessed preclinically in a pig model of obstructive sleep apnea (OSA).
Using negative pressure, it is possible to induce collapse and thus obstruction of the upper respiratory tract in anaesthetized, spontaneously breathing pigs (Wirth K. J. et al., Sleep 36(5) (2013) pp. 699-708).
German Landrace pigs are used for the model. The pigs are anaesthetized and tracheotomized. Two tracheal cannulas are inserted into the trachea, one into the rostral part and the other into the caudal part of the trachea. Using a connection piece, the rostral cannula is connected to a tube to the negative pressure device and to the distal tracheal cannula. The distal tracheal cannula is additionally connected to a tube with an open end to atmosphere via a connection piece that served for free tracheal breathing, circumventing the upper airway. By appropriate opening and clamping of those tubes breathing can be switched from nasal breathing to breathing through the caudal tracheal cannula, circumventing the upper airway, and the (isolated) upper airway can be connected to the negative pressure device, causing airflow in the inspiratory direction.
At certain points in time, the collapsibility of the upper respiratory tract is tested by having the pig breathe via the caudal cannula and applying negative pressures of −50, −100 and −150 cm water head (cm H2O) to the upper respiratory tract. This causes the upper respiratory tract to collapse, which manifests itself in an interruption of the airflow and a pressure drop in the tube system. This test is conducted prior to the administration of the test substance and at certain intervals after the administration of the test substance. An appropriately effective test substance can prevent this collapse of the respiratory tract in the inspiratory phase.

[2] = free plasma concentrations of Gefapixant in the OSA pig model (FIG. 4); assay type: in vivo, German Landrace pigs; settings: pigs, minimal effective dose of Gefapixant (iv bolus 0.3 mg/kg then infusion 0.1 mg/kg/h)
[3] = 0.3 μg intranasal given at 0 min, time 0 min
[4] = 0.3 μg intranasal given at 0 min, time 10 min
[5] = 0.3 μg intranasal given at 0 min, time 30 min
[6] = 0.3 μg intranasal given at 0 min, time 60 min
[7] = 0.3 μg intranasal given at 0 min, time 90 min
[8] = Gefapixant iv bolus 0.3 mg/kg then iv infusion 0.1 mg/kg/h for four hours, given at 0 min, time 0 min
[9] = Gefapixant iv bolus 0.3 mg/kg then iv infusion 0.1 mg/kg/h for four hours, given at 0 min, time 10 min
[10] = Gefapixant iv bolus 0.3 mg/kg then iv infusion 0.1 mg/kg/h for four hours, given at 0 min, time 30 min
[11] = Gefapixant iv bolus 0.3 mg/kg then iv infusion 0.1 mg/kg/h for four hours, given at 0 min, time 60 min
[12] = Gefapixant iv bolus 0.3 mg/kg then iv infusion 0.1 mg/kg/h for four hours, given at 0 min, time 120 min
[13] = Gefapixant iv bolus 0.3 mg/kg then iv infusion 0.1 mg/kg/h for four hours, given at 0 min, time 180 min
[14] = Gefapixant iv bolus 0.3 mg/kg then iv infusion 0.1 mg/kg/h for four hours, given at 0 min, time 240 min
[15] = Gefapixant iv bolus 0.3 mg/kg then iv infusion 0.1 mg/kg/h for four hours, given at 0 min, time 300 min

SMILES: COc1ccc(Cl)c(C(=O)N2C3CCC2CN(Cc2c(-c4ccc(C(C)C)cc4)nc4ncccn24)C3)n1 [(3-chloro-6-methoxypyridin-2-yl)(3-{[2-(4-isopropylphenyl)imidazo[1,2-a]pyrimidin-3-yl]methyl}-3,8-diazabicyclo[3.2.1]oct-8-yl)methanone]
- effectiveness of the dose on upper airway collapsibility ([1]; 0.3 μg intranasal): non effective dose
- Percent pigs without collaps −50 cm H2O, % [1, 3]: 0%
- Percent pigs without collaps −50 cm H2O, % [1, 4]: 33%
- Percent pigs without collaps −50 cm H2O, % [1, 5]: 0%
- Percent pigs without collaps −50 cm H2O, % [1, 6]: 0%
- Percent pigs without collaps −50 cm H2O, % [1, 7]: 0%
- Percent pigs without collaps −100 cm H2O, % [1, 3]: 0%
- Percent pigs without collaps −100 cm H2O, % [1, 4]: 33%
- Percent pigs without collaps −100 cm H2O, % [1, 5]: 0%
- Percent pigs without collaps −100 cm H2O, % [1, 6]: 0%
- Percent pigs without collaps −100 cm H2O, % [1, 7]: 0%
- Percent pigs without collaps −150 cm H2O, % [1, 3]: 0%
- Percent pigs without collaps −150 cm H2O, % [1, 4]: 0%
- Percent pigs without collaps −150 cm H2O, % [1, 5]: 0%
- Percent pigs without collaps −150 cm H2O, % [1, 6]: 0%
- Percent pigs without collaps −150 cm H2O, % [1, 7]: 0%

SMILES: COc1cc(C(C)C)c(Oc2cnc(N)nc2N)cc1S(N)(=O)=O [Gefapixant]
- free plasma concentrations [2]: about 100 nM
- Percent pigs without collaps −50 cm H2O, % [1, 8]: 0%
- Percent pigs without collaps −50 cm H2O, % [1, 9]: 0%
- Percent pigs without collaps −50 cm H2O, % [1, 10]: 100%
- Percent pigs without collaps −50 cm H2O, % [1, 11]: 100%
- Percent pigs without collaps −50 cm H2O, % [1, 12]: 0%
- Percent pigs without collaps −50 cm H2O, % [1, 13]: 0%
- Percent pigs without collaps −50 cm H2O, % [1, 14]: 0%
- Percent pigs without collaps −50 cm H2O, % [1, 15]: 0%
- Percent pigs without collaps −100 cm H2O, % [1, 8]: 0%
- Percent pigs without collaps −100 cm H2O, % [1, 9]: 0%
- Percent pigs without collaps −100 cm H2O, % [1, 10]: 100%
- Percent pigs without collaps −100 cm H2O, % [1, 11]: 0%
- Percent pigs without collaps −100 cm H2O, % [1, 12]: 0%
- Percent pigs without collaps −100 cm H2O, % [1, 13]: 0%
- Percent pigs without collaps −100 cm H2O, % [1, 14]: 0%
- Percent pigs without collaps −100 cm H2O, % [1, 15]: 0%
- Percent pigs without collaps −150 cm H2O, % [1, 8]: 0%
- Percent pigs without collaps −150 cm H2O, % [1, 9]: 0%
- Percent pigs without collaps −150 cm H2O, % [1, 10]: 100%
- Percent pigs without collaps −150 cm H2O, % [1, 11]: 0%
- Percent pigs without collaps −150 cm H2O, % [1, 12]: 0%
- Percent pigs without collaps −150 cm H2O, % [1, 13]: 0%
- Percent pigs without collaps −150 cm H2O, % [1, 14]: 0%
- Percent pigs without collaps −150 cm H2O, % [1, 15]: 0%
- effectiveness of the dose on upper airway collapsibility ([1]; iv bolus 0.3 mg/kg then iv infusion 0.1 mg/kg/h for four hours): minimal effective dose
- only time point after intravenous application at which upper airway collapsibility was inhibited at all three negative pressures in all pigs ([1]; iv bolus 0.3 mg/kg then iv infusion 0.1 mg/kg/h for four hours, −50, −100 and −150 cm H2O): 30 min
